Tests used:
[1] = test system: twelve individual novel WW domains of WWP1, WWP2, WWP3 and WWP4; test: ELISA based cross affinity mapping, whole panel of novel WW domains; assay type: binding, human; details: biotinylated peptide-streptavidin/alkaline phosphatase complex, GST fusion proteins
Description: (§1) The 16 day mouse embryo cDNA expression library was diluted 1:1000 in SM solution (100 mM NaCl, 8 mM MgSOv4, 50 mM Tris HCl pH 7.5, 0.01% gelatin). To a sterile test tube, 2 μl of diluted mouse embryo library, 100 μl of 10 mM CaCl2, 100 μl of 10 mM MgCl2 and 100 μl of BL21(DE3)pLysE bacterial cells (grown overnight) were added and incubated for 30 minutes at 37° C. The contents of the tube were mixed with 3 ml of 0.6% top agarose, containing […] chloramphenicol, and poured onto a 2xYT plate (90 mm diameter). For a large primary screen, 10–20 plates were prepared with 3×10^4 pfu per plate. After 6 hours incubation at 37° C., a nitrocellulose filter soaked in 10 mM isopropyl-β-D-thiogalactopyranoside (IPTG) was overlaid on each plate and incubated 3–6 hours at 37° C. Before the filters were removed from the plates, they were marked asymmetrically with India ink in a 18 gauge syringe needle. The plates were stored at 4° C. until ready for the secondary screen. The filters were washed with PBS (137 mM NaCl, 2.7 mM KCl, 4.3 mM Na2HPO4, 1.4 mM KH2PO4)-0.05% Triton X-100 three times at room temperature, 15 minutes each wash, and then placed in a plastic bag containing non-specific blocking solution (PBS-2% BSA) for one hour. In the meantime, 1 ml of 1 mM biotinylated peptide in PBS-0.1% Tween 20 was added to 20 ml of 1 mg/ml streptavidin-alkaline phosphatase (SA-AP) in PBS-0.1% Tween 20 and incubated at 4° C. for 30 minutes. […] Excess biotin-binding sites would then be blocked by addition of 500 pmol biotin. […] Ten μl of 0.1 mM biotin would then be added, and the solution incubated for an additional 15 min.
(§2) To determine the ligand preferences of the novel WW omain-containing clones described in Sections 6.1 and 6.1.1, as well as addressing the issue of whether peptides containing PPPPY (SEQ ID NO:3)-like motifs derived from a variety of proteins could also serve as recognition units and bind to these clones, a cross affinity mapping experiment was performed (FIGS. 15A–D). The peptides shown in FIGS. 15A–D were synthesized, biotinylated, complexed with streptavidin-alkaline phosphatase, and tested in an ELISA based assay for their ability to bind to the twelve individual novel WW domains of WWP1, WWP2, WWP3 and WWP4 which were expressed as GST fusion proteins. The ELISA based cross-affinity experiments were performed essentially as described by Sparks et al. (1996, Proc. Natl. Acad. Sci. 93:1540–1544) with the following modifications. Briefly, microtiter wells were coated with 1–5 μg of fusion protein in 100 mM NaHCO3, blocked with SuperBlock TBS (Pierce) and washed four times with PBS, 0.05% Tween 20. Specific peptide-streptavidin/alkaline phosphatase complexes were added as above and unbound complexes washed five times with PBS, 0.05% Tween 20. Following addition of PNP substrate (p-nitrophenyl phosphate, Kirkegard & Perry Labs), peptide binding was quantitated after 30 min. at O.D. 405 nm. Relative binding measurements from three independent determinations were assigned to a scale as follows: O.D. units 0–0.5=(−), 0.5–1.0=(+), 1.0–2.0=(++), 2.0–3.0=(+++), >3.0=(++++). Peptide binding to human Fyn and Lyn SH3 and SH2 domains was assessed by a filter binding assay (see Section 6.1 and Sparks et al., 1996, Proc. Natl. Acad. Sci 93:1540–1544). Peptide sequences used in cross-affinity experiments correspond to segments of the following genes: RasGap (Database accession # P20936), AP-2 (P05549), p53BP-2 (U09582), IL-6Rα (P22272), voltage-gated chloride channel CLCN5 (X91906), IL-2Rγ (D111086), RSV (D10652), HTLV-1 (D13784), β-dystroglycan (L19711), Formin (X53599), amiloride-sensitive epithelial Na^+ channel ENaCα (P37089), ENaCβ (X87159) and ENaCγ (X87160), muscarinic acetylcholine receptor M4 AChR (P08173), and c-Abl (P00522). Src and Crk SH3 binding peptide sequences were derived from a phage display random peptide library screen (Section 6.1 and Sparks et al., 1996, Proc. Natl. Acad. Sci. 93:1540–1544).

[2] = test system: WW domains of WWP4 expressed as GST fusion proteins; test: ELISA based cross affinity mapping, WW domains of WWP4; assay type: binding, human; details: biotinylated peptide-streptavidin/alkaline phosphatase complex; GST fusion proteins; ELISA
Description: as §1, §2

[3] = test system: WW domains of WWP1 expressed as GST fusion proteins; test: ELISA based cross affinity mapping, WW domains of WWP1; assay type: binding, human; details: biotinylated peptide-streptavidin/alkaline phosphatase complex; GST fusion proteins; ELISA
Description: as §1, §2

[4] = test system: WW domains of WWP2 expressed as GST fusion proteins; test: ELISA based cross affinity mapping, WW domains of WWP2; assay type: binding, human; details: biotinylated peptide-streptavidin/alkaline phosphatase complex; GST fusion proteins; ELISA
Description: as §1, §2

[5] = biological target: T1, WWP3 WW domain expressed as GST fusion protein (Homo sapiens, UniProt Q96QZ7); test: ELISA based cross affinity mapping, WWP3 WW domain; assay type: binding; details: biotinylated peptide-streptavidin/alkaline phosphatase complex
T1 construct: made in house
T1 sequence (Q96QZ7 300-337 limits assumed): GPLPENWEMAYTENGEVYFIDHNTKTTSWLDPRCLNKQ
Description: The 16 day mouse embryo cDNA expression library was diluted 1:1000 in SM solution (100 mM NaCl, 8 mM MgSOv4, 50 mM Tris HCl pH 7.5, 0.01% gelatin). To a sterile test tube, 2 μl of diluted mouse embryo library, 100 μl of 10 mM CaCl2, 100 μl of 10 mM MgCl2 and 100 μl of BL21(DE3)pLysE bacterial cells (grown overnight) were added and incubated for 30 minutes at 37° C. The contents of the tube were mixed with 3 ml of 0.6% top agarose, containing […] chloramphenicol, and poured onto a 2xYT plate (90 mm diameter). For a large primary screen, 10–20 plates were prepared with 3×10^4 pfu per plate. After 6 hours incubation at 37° C., a nitrocellulose filter soaked in 10 mM isopropyl-β-D-thiogalactopyranoside (IPTG) was overlaid on each plate and incubated 3–6 hours at 37° C. Before the filters were removed from the plates, they were marked asymmetrically with India ink in a 18 gauge syringe needle. The plates were stored at 4° C. until ready for the secondary screen. The filters were washed with PBS (137 mM NaCl, 2.7 mM KCl, 4.3 mM Na2HPO4, 1.4 mM KH2PO4)-0.05% Triton X-100 three times at room temperature, 15 minutes each wash, and then placed in a plastic bag containing non-specific blocking solution (PBS-2% BSA) for one hour. In the meantime, 1 ml of 1 mM biotinylated peptide in PBS-0.1% Tween 20 was added to 20 ml of 1 mg/ml streptavidin-alkaline phosphatase (SA-AP) in PBS-0.1% Tween 20 and incubated at 4° C. for 30 minutes. As an alternative method of forming multivalent complexes, 50 pmol biotinylated peptide could have been incubated with 2 μg SA-AP (for a biotin:biotin-binding site ratio of 1:1). Excess biotin-binding sites would then be blocked by addition of 500 pmol biotin. As a further alternative, 31.2 μl of 1 mg/ml SA-AP could have been incubated with 15 μl of 0.1 mM biotinylated peptide for 30 min at 4° C. Ten μl of 0.1 mM biotin would then be added, and the solution incubated for an additional 15 min.
as §2, with “Peptide sequences used in cross-affinity experiments correspond to segments of the following genes: RasGap (Database accession # P20936), AP-2 (P05549), p53BP-2 (U09582), IL-6Rα (P22272), voltage-gated chloride channel CLCN5 (X91906), IL-2Rγ (D111086), RSV (D10652), HTLV-1 (D13784), β-dystroglycan (L19711), Formin (X53599), amiloride-sensitive epithelial Na^+ channel ENaCα (P37089), ENaCβ (X87159) and ENaCγ (X87160), muscarinic acetylcholine receptor M4 AChR (P08173), and c-Abl (P00522). Src and Crk SH3 binding peptide sequences were derived from a phage display random peptide library screen (Section 6.1 and Sparks et al., 1996, Proc. Natl. Acad. Sci. 93:1540–1544).” left out

Substance | binding to the novel WW domains (WWP1, WWP2, WWP3, WWP4 panel) [1] | binding to WW domains of WWP4 [2] | binding to WW domains of WWP1 [3] | binding to WW domains of WWP2 [4] | binding to WWP3 WW domain [5]
AP-2: peptide with PPPPY-like motif from AP-2 transcription factor (P05549) (PYFPPPYQPI) | bound to WW domains from one or more of the four novel clones | – | – | – | –
ENaCβ-P616L: mutant ENaCβ peptide, Liddle syndrome missense substitution, PPPNY to PPLNY (PGTPPLNYDSLRL) | – | do not bind | do not bind | do not bind | –
ENaCβ-Y618H: mutant ENaCβ peptide, Liddle syndrome missense substitution, PPPNY to PPPNH (PGTPPPNHDSLRL) | – | do not bind | do not bind | do not bind | –
IL-2R: peptide from interleukin receptor IL-2R (YWAPPCYTLK) | bound to WW domains from one or more of the four novel clones | – | – | – | –
IL-6R: peptide from interleukin receptor IL-6R (TTSPPPPPYS) | bound to WW domains from one or more of the four novel clones | – | – | – | –
RasGap: peptide with PPPPY-like motif from a segment of RasGap (P20936) (PLPPPPYLPP) | bound to WW domains from one or more of the four novel clones | – | – | – | –
WBP-2A-Pro3: WBP-2A peptide with substitution of the second proline (SGSGYVQPPAPPYPGPM) | – | is not | – | is not | –
WBP-2A-Pro4: WBP-2A peptide with substitution of the third proline residue (SGSGYVQPPPAPYPGPM) | – | absolutely essential for binding | absolutely essential for binding | absolutely essential for binding | absolutely essential for binding
bWW060: alanine substitution variant of the tyrosine residue of the PPPPY-like domain of WWP4 (NRLDLPPAETFED) | – | abolished binding activity | abolished binding activity | abolished binding activity | –
bWW062: alanine substitution variant of the tyrosine residue of the PPPPY-like domain of WWP2 (NRLDLPPAKSYEQ) | – | abolished binding activity | abolished binding activity | abolished binding activity | –
biotin - PGTPPPKYNTLRL [ENaCγ] | – | positive interaction | positive interaction | positive interaction | positive interaction
p53BP-2: peptide with PPPPY-like motif from p53 binding protein-2 (U09582) (YPPYPPPPYPSG) | bound to WW domains from one or more of the four novel clones | – | – | – | –
β dystroglycan-2: second peptide from dystrophin interacting molecule β-dystroglycan (YRSPPPYVPP) | bound to WW domains from one or more of the four novel clones | – | – | – | –
β-dystroglycan-1: peptide from dystrophin interacting molecule β-dystroglycan (L19711) (PLPPPEYPNQ) | bound to WW domains from one or more of the four novel clones | – | – | – | –

Reference: US7279548B2, “Identification and isolation of novel polypeptides having WW domains and methods of using same” (Cytogen Corporation, priority 1996, dated 2007)
